# Tests used:
# [1] = Thermal interconversion of solid forms on drying, followed by PXRD; format: physicochemical
# Protocol: The PXRD patterns depicted in the accompanying figures were obtained on a Scintag X-Ray powder diffractometer model X'TRA with a copper tube solid state detector. A round standard aluminum sample holder with round zero background quartz plate was used. Scanning parameters: Range: 2-40°2θ: continuous scan, Rate: 3 deg./min.
# The mixture was stirred overnight at ambient temperature, giving the crystals. The crystals were filtered on filter paper.
# Pantoprazole sodium Form V was dried at 65° C. under ambient pressure for two hours.
# The solution was stirred overnight without precipitation. The solution was allowed to stand overnight in an opened flask with precipitation of the product. The crystals were filtered and allowed to stand at room temperature open to the air for a short period of time but were not otherwise dried.
# The pantoprazole sodium Form VI was then dried at 50° C. under a 10 mm Hg vacuum overnight. The resulting powder was analyzed by PXRD and found to be amorphous.
# [2] = as above; format: physicochemical; conditions: 100° C. under 10 mm vacuum overnight
# [3] = Solubility of pantoprazole sodium in alcohols; format: physicochemical
# Source text: Accordingly, initial investigation focused on how this solvate could be produced by crystallization from a solution rather than a heterogeneous technique. We discovered that combining free pantoprazole and solid sodium hydroxide in 1-butanol and crystallization of the resulting pantoprazole sodium salt yielded Form V. The presence of minor amounts of water originating from the use of non-anhydrous 1-butanol, a hydrated starting material or water adsorbed on the equipment used for crystallization has no effect on the crystal form obtained. […] Again, conditions depleted of water, yet not rigorously anhydrous were investigated. We discovered that Form X can be obtained by crystallization from a solution formed by combining free pantoprazole with sodium hydroxide in 1-propanol.
# [4] = cited from earlier work
# [5] = 50° C. under 10 mm Hg vacuum overnight
# [6] = 65° C. under ambient pressure for two hours
smiles,measurement,setting,value
"COc1ccnc(C[S+]([O-])c2nc3ccc(OC(F)F)cc3[nH]2)c1OC (stereo not shown) [Form IV, pantoprazole sodium]",solid form obtained after drying (PXRD),[1]; [5],pantoprazole sodium Form I
"COc1ccnc(C[S+]([O-])c2nc3ccc(OC(F)F)cc3[nH]2)c1OC (stereo not shown) [Form V, pantoprazole sodium]",solid form obtained after drying (PXRD),[1]; [6],pantoprazole sodium Form XIII
same,solid form obtained after drying (PXRD),"[1]; 65° C. under ambient pressure for two hours, listed as pantoprazole sodium 1-butanol solvate",pantoprazole sodium Form XIII
"COc1ccnc(C[S+]([O-])c2nc3ccc(OC(F)F)cc3[nH]2)c1OC (stereo not shown) [Form VI, pantoprazole sodium]",solid form obtained after drying (PXRD),[1]; [5],amorphous
"COc1ccnc(C[S+]([O-])c2nc3ccc(OC(F)F)cc3[nH]2)c1OC (stereo not shown) [Form VIII, pantoprazole sodium]",solid form obtained after drying,"[1]; 50° C. under 10 mm Hg vacuum, time not given",pantoprazole sodium Form I
"COc1ccnc(C[S+]([O-])c2nc3ccc(OC(F)F)cc3[nH]2)c1OC (stereo not shown) [Form XII, pantoprazole sodium]",solid form obtained after drying (PXRD),[1]; [6],pantoprazole sodium Form XIII
same,solid form obtained after drying (PXRD),"[1]; 65° C. under ambient pressure for two hours, listed as pantoprazole sodium 2-methylpropanol solvate",pantoprazole sodium Form XIII
"COc1ccnc(C[S+]([O-])c2nc3ccc(OC(F)F)cc3[nH]2)c1OC (stereo not shown) [Form XIII, pantoprazole sodium]",solid form obtained after further drying,[1]; 65° C. for another two hours under ambient pressure (Form XIII obtained from Form V),partially amorphous
same,solid form obtained after drying (PXRD),[1]; [6],amorphous pantoprazole sodium
"COc1ccnc(C[S+]([O-])c2nc3ccc(OC(F)F)cc3[nH]2)c1OC (stereo not shown) [Form XIV, pantoprazole sodium]",solid form obtained after drying (PXRD),[1]; [5],pantoprazole sodium Form XV
"COc1ccnc(C[S+]([O-])c2nc3ccc(OC(F)F)cc3[nH]2)c1OC (stereo not shown) [Form XVIII, pantoprazole sodium]",solid form by PXRD as wet sample and after drying,[1]; drying at 50° C.,Form XVIII
"COc1ccnc(C[S+]([O-])c2nc3ccc(OC(F)F)cc3[nH]2)c1OC (stereo not shown) [Form XX, pantoprazole sodium]",dehydration on drying,[1]; mild conditions such as 50° C. at 10 mm Hg vacuum,without causing significant dehydration
"COc1ccnc(C[S+]([O-])c2nc3ccc(OC(F)F)cc3[nH]2)c1OC (stereo not shown) [Pantoprazole sodium sesquihydrate, pantoprazole sodium]",solid form obtained after drying,[2],amorphous pantoprazole sodium
"COc1ccnc(C[S+]([O-])c2nc3ccc(OC(F)F)cc3[nH]2)c1OC (stereo not shown) [Pantoprazole sodium, pantoprazole sodium]",solubility in 1-butanol,[3]; 1-butanol,appreciably soluble
same,solubility in 1-propanol,[3]; 1-propanol,high solubility
"COc1ccnc(C[S+]([O-])c2nc3ccc(OC(F)F)cc3[nH]2)c1OC (stereo not shown) [monohydrate, pantoprazole sodium]",solubility in acetone,[4],dissolves with difficulty
